Test results as given in patent US12370258B2, “PD-1 and CTLA-4 dual inhibitor peptides” (priority 2017, dated 2025).
Ends that are not written are not given here.

Experiments:
B16-F-10 mouse melanoma = assay: B16-F10 mouse melanoma lung metastasis model; type: in vivo, C57/BL6 mice; settings: for number of tumor nodules, difference versus no treatment saline (one-way ANOVA, p<0.05) / reduction of lung metastasis (tumor nodules) relative to no treatment saline: Table 1B study, i.v., days 1, 2, 4, 6, 8, 12
human PD-1 [1] = target: T1, human PD-1 (Homo sapiens, UniProt Q15116); assay: BIACORE binding of peptide LD01 to human PD-1; settings: immobilized peptide; single analyte concentration 290 nM; 25° C.
Procedure: (§1) BIACORE® assays were carried out using a BIACORE® T-200 at 25° C. The assay and regeneration buffers contained 10 mM HEPES (pH 7.4), 150 mM NaCl, 3 mM EDTA, and 0.05% P20. The immobilization buffer was 10 mM sodium acetate, pH 5.0. The flow rate used for immobilizing the ligand was 5 μl/min. The flow rate for kinetics analysis was 30 μl/min.
(§2) Scouting. […] The un-occupied sites were blocked with 1M ethanol amine. Scouting was performed at a single analyte concentration of 290 nM to confirm yes/no binding. Flow cell 1 was kept blank and used for reference subtraction. Binding of analyte to the ligand was monitored in real time.
(§3) Full Kinetics. Based on the scouting results, full kinetics was performed at analyte concentration of 100 nM, followed by serial dilution to 50, 25, 12.5, 6.25, 3.125, 1.562 and 0 nM concentration or as indicated. KD was determined from the observed kon (on rate) and koff (off rate) or by steady state equilibrium kinetics for the interactions with fast off rate.
(§4) Chi square (χ^2) analysis was carried out between the actual Sensorgram and the sensorgram generated from the BIAnalysis software to determine the accuracy of the analysis. χ^2 value within 1-2 is considered significant (accurate) and below 1 is highly significant (highly accurate).
Target sequence in this assay (Q15116 25-288): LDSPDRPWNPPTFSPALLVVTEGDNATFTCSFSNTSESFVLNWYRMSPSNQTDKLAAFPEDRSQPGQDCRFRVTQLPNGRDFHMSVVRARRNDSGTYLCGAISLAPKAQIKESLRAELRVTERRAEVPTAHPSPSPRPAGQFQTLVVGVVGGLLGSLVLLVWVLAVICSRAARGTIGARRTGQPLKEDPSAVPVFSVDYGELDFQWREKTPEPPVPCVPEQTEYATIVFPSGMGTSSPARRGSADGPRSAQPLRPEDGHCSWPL

mouse PD-1 = target: T2, mouse PD-1 (Mus musculus, UniProt Q02242); assay: BIACORE binding of peptide LD01 to mouse PD-1; settings: immobilized peptide; 25° C.
T2 sequence (Q02242 25-288): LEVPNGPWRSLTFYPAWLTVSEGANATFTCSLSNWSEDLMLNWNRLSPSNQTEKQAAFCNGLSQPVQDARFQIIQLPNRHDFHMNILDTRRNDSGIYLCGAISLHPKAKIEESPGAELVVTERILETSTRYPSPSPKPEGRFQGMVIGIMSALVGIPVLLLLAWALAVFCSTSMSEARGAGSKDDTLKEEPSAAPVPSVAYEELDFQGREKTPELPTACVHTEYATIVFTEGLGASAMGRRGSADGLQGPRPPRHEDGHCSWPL
Procedure: as §1, §2, §3, §4

[2] = target: T3, human PD-1 expressed on the surface of Jurkat cells (Homo sapiens, UniProt Q15116); assay: Binding of PD-L1-Fc fusion protein to human PD-1 on Jurkat cells (flow cytometry); type: cell-based; settings: varying peptide concentrations, 1 hour pre-incubation; increasing dose-response trend
T3 construct: host or cells: Jurkat
T3 sequence (Q15116 25-288): as the sequence (Q15116 25-288) above
Procedure: A human T cell line (Jurkat) stably expressing human PD-1 on its surface was purchased from Promega. This cell line was cultured using sterile techniques and maintained in log-phase growth. PD-1 protein expression levels were measured using an anti-human PD-1 antibody labeled with allophycocyanin (APC) for quality assessment.
For the experiment, 200 μL of 2.5*10^5 cells were plated in staining buffer into a microtiter plate. […] After another wash step, the cells were incubated with anti-human Fc labeled with AF647 for 30 minutes. After several washes, the mean fluorescence intensity due to PD-L1-Fc binding to PD-1 was measured by flow cytometry.

human PD-1 [3] = target: T1, human PD-1; assay: Binding of PD-L1-Fc to PD-1 in a cell-free plate assay; settings: plates coated with peptide; 1 μg/mL PD-1
Procedure: The plates were washed and blocked with 1% BSA for 1 hour at room temperature. The plates were then incubated with 100 μL of 1 μg/mL PD-1 at room temperature for 1 hour. The plates were again washed and incubated with PD-L1 at room temperature for 1 hour. After another round of washes, the plates were incubated with anti-human IgG-HRP. After incubation for 1 hour and washes, the HRP was detected by incubating with TMB substrate, and the OD were read on a microplate reader.
Target sequence in this assay (Q15116 25-167 limits assumed): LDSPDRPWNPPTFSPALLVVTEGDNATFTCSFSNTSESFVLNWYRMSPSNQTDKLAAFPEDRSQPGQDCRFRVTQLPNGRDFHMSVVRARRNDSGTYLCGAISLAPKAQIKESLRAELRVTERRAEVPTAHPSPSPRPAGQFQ
Target sequence in this assay (Q9NZQ7 19-238 partner limits assumed): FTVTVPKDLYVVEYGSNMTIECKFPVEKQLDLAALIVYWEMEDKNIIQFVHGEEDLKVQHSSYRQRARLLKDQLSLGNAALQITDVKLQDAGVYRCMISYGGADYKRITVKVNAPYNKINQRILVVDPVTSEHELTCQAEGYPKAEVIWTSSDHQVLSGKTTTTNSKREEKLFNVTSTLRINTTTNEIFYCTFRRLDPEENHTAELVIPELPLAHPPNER

mouse splenocytes = assay: Anti-CD3-stimulated mouse splenocyte proliferation (CFSE); type: cell-based; settings: 1, 5, 25 μM peptide; 1 μg/mL anti-CD3; presence and absence of exogenously added PD-L1-Fc; 3 days
Procedure: PD-L1-Fc fusion protein is hypothesized to reduce anti-CD3 induced splenocyte proliferation.
Carboxyfluorescein diacetate succinimidyl ester (CFSE)-labeled mouse splenocytes (400,000 cells, 5 μM CFSE) were stimulated using 1 μg/mL anti-CD3 antibody and varying levels of PD-L1-Fc or an irrelevant control Fc. […] The CFSE dilution profiles were analyzed by flow cytometry after 3 days of treatment.

[4] = tested on: CSP-specific, IFNγ-secreting CD8+ T cells; assay: Immunogenicity of AdPyCSP malaria vaccine (ELISPOT); type: in vivo, Balb/c mice; settings: for increase in number of CSP-specific, IFNγ-secreting CD8 T cells relative to AdPyCSP alone: 200 μg i.p. days 0, 1, 3, 5, 7, day 12
Procedure: Balb/c mice were immunized intramuscularly with 10^10 virus particles of a recombinant replication defective adenovirus expressing the Plasmodium yoelli circumsporozoite protein (AdPyCSP).
The negative control peptide used in this study was the ovalbumin (OVA) peptide ([…], SEQ ID NO:34). At day 12 post immunization, mice were euthanized, individual spleens removed, and the number of splenic CSP-specific, IFNγ-secreting CD8^+ T cells were determined by ELISPOT assay. For the ELISPOT assay splenocytes were stimulated with the peptide […] (SEQ ID NO:35), an H-2Kd-restricted CD8^+ T cell epitope of PyCSP.
Peptides LD01, LD10da, and LD16da were tested as described above, this time using peptide LD12 (cohort 2) as the negative control. Test sample, route of treatment and treatment days are detailed in Table 2B.
At day 12 post immunization, mice were euthanized, individual spleens removed, and the number of splenic CSP-specific, IFNγ-secreting CD8^+ T cells were determined by ELISPOT assay. For the ELISPOT assay splenocytes were stimulated with the peptide […] (SEQ ID NO:35), an H-2Kd-restricted CD8^+ T cell epitope of PyCSP.

[5] = tested on: CD1 mice with intra-abdominal peritonitis induced by cecal ligation and puncture (CLP); assay: Mouse sepsis model (CLP), survival; type: in vivo; settings: 200 μg intraperitoneally at 6, 24, and 48 hours after CLP surgery
Description: CD1 mice were anesthetized, a midline abdominal incision made, the cecum was ligated and punctured, and then the incision closed.

IFNγ-secreting T cells = assay: Mouse sepsis model (CLP), splenic IFNγ-secreting T cells by ELISPOT; type: in vivo, mice; settings: treated at 6, 24, 48, 72 and 96 hours after CLP, anti-CD3 and anti-CD28 stimulation
Procedure: Twenty-four hours later, mice were euthanized, individual spleens were removed, and the number of splenic IFNγ-secreting T cells were determined by ELISPOT assay. For the ELISPOT assay splenocytes were stimulated via anti-CD3 and anti-CD28. Shown in FIG. 14 is the number of IFNγ-secreting T cells per 2×10^5 splenocytes.

human PBMCs = type: cell-based; settings: 72 hours

CC[C@H](C)[C@H](NC(=O)[C@H](CCC(N)=O)NC(=O)CNC(=O)[C@@H](NC(=O)[C@H](CO)NC(=O)[C@H](N)[C@H](C)O)[C@@H](C)O)C(=O)N[C@@H](CO)C(=O)N[C@H](C(=O)N[C@@H](CC(C)C)C(=O)N[C@@H](CCCNC(=N)N)C(=O)N[C@H](C(=O)N[C@@H](CC(N)=O)C(=O)N[C@H](C(=O)N[C@H](C(=O)N[C@@H](C)C(=O)N1CCC[C@H]1C(=O)N[C@@H](CC(C)C)C(=O)N[C@@H](CO)C(=O)N[C@@H](CCC(N)=O)C(N)=O)[C@@H](C)O)[C@@H](C)CC)C(C)C)[C@@H](C)O [LD01 TQ19 da/LD16 da]
number of tumor nodules, difference versus no treatment saline (one-way ANOVA, p<0.05) (B16-F-10 mouse melanoma): Significant differences | reduction of lung metastasis (tumor nodules) relative to no treatment saline (B16-F-10 mouse melanoma): ~30%

CC[C@H](C)[C@H](NC(=O)[C@H](CCC(N)=O)NC(=O)CNC(=O)[C@@H](NC(=O)[C@H](CO)NC(=O)[C@@H](NC(=O)[C@H](CCCNC(=N)N)NC(=O)[C@H](CCCNC(=N)N)NC(=O)[C@@H](N)CS)[C@@H](C)O)[C@@H](C)O)C(=O)N[C@@H](CO)C(=O)N[C@H](C(=O)N[C@@H](CC(C)C)C(=O)N[C@@H](CCCNC(=N)N)C(=O)N[C@H](C(=O)N[C@@H](CC(N)=O)C(=O)N[C@H](C(=O)N[C@H](C(=O)N[C@@H](C)C(=O)N1CCC[C@H]1C(=O)N[C@@H](CC(C)C)C(=O)N[C@@H](CO)C(=O)N[C@@H](CCC(N)=O)C(N)=O)[C@@H](C)O)[C@@H](C)CC)C(C)C)[C@@H](C)O [LD01]
binding to human PD-1 (BIACORE, yes/no) (human PD-1 [1]): binds | binding to mouse PD-1 (BIACORE, single concentration and kinetics) (mouse PD-1): binds | effect on binding of human PD-L1-Fc fusion protein to human PD-1-expressing Jurkat cells [2]: enhances binding | effect on binding of human PD-L1-Fc fusion protein to human PD-1 in a cell-free assay (human PD-1 [3]): enhances binding | effect on proliferation of anti-CD3 stimulated mouse splenocytes (mouse splenocytes): enhances proliferation | reduction of lung metastasis (tumor nodules) relative to no treatment (B16-F-10 mouse melanoma; Table 1A study, Cohorts 3 and 4 (20 μg and 200 μg i.v., days 1, 2, 4, 6, 8, 12), day 14): ~50% | number of tumor nodules, difference versus no treatment saline (one-way ANOVA, p<0.05) (B16-F-10 mouse melanoma): Significant differences | reduction of lung metastasis (tumor nodules) relative to no treatment saline (B16-F-10 mouse melanoma): ~30% | immunogenicity compared with anti-PD-1 or -PD-L1 antibody (Cohort 4 and 5) ([4]; Table 2A study, 200 μg i.p.): slightly above | increase in number of CSP-specific, IFNγ-secreting CD8 T cells relative to AdPyCSP alone ([4]; Table 2A study): ~2 fold | increase in number of CSP-specific, IFNγ-secreting CD8 T cells relative to AdPyCSP alone ([4]; Table 2B study): ~1.5 fold | survival rate [5]: 70% | number of splenic IFNγ-secreting T cells relative to the control peptide (IFNγ-secreting T cells): increase | increase in IFN-γ secretion relative to SEB alone (human PBMCs): 4 fold

CC[C@H](C)[C@H](NC(=O)[C@H](CCC(N)=O)NC(=O)CNC(=O)[C@@H](NC(=O)[C@H](N)CO)[C@@H](C)O)C(=O)N[C@@H](CO)C(=O)N[C@H](C(=O)N[C@@H](CC(C)C)C(=O)N[C@@H](CCCNC(=N)N)C(=O)N[C@H](C(=O)N[C@@H](CC(N)=O)C(=O)N[C@H](C(=O)N[C@H](C(=O)N[C@@H](C)C(=O)N1CCC[C@H]1C(=O)N[C@@H](CC(C)C)C(=O)N[C@@H](CO)C(=O)N[C@@H](CCC(N)=O)C(N)=O)[C@@H](C)O)[C@@H](C)CC)C(C)C)[C@@H](C)O [LD10da]
immunogenicity compared with α-PD-1 mAb (Cohort 6) ([4]; Table 2B study, 200 μg i.p.): slightly above

RRTSPGQISTLRVNITAPLSQ [LD02]
survival rate [5]: 30%
